The source of these data is PMC11141866, “Pyrimidine depletion enhances targeted and immune therapy combinations in acute myeloid leukemia” (JCI Insight, 2024).

Data set [1] deals with MOLM-13 disseminated CDX AML model. Description: MOLM-13 CDX synergy with azacitidine / venetoclax. It counts as in vivo, NCG mice. The settings on record: HOSU-53 4 mg/kg po qd; event 1 = death, 0 = censored; 4 mg/kg. On the procedure: Female 8- to 12-week-old NCG mice were engrafted with 1 × 10^5 cells via tail vein i.v. injection. Four days postengraftment (day 1 of treatment), mice (n = 10/arm) were randomized to receive p.o. qd vehicle (40% HPβCD, n = 10; or 60% Phosal 50 PG, 30% PEG 400, and 10% ethanol, n = 10), 4 mg/kg HOSU-53, 25 mg/kg ven, or i.p. 1.5 mg/kg aza on a 5 days on/16 days off cycle, combinations of double regimens and triple regimens till moribundity or end of study, day 53.
Supplemental Figure S.4. […] Using the FLT3 […]
were enrolled to receive daily oral 4 mg/kg HOSU-53 to compare its monotherapy efficacy with daily oral 25 mg/kg venetoclax (ven) monotherapy or 1.5 mg/kg azacitidine (aza) HMA i.p. for five days every 16 days cycle monotherapy or the combination of aza/ven versus ven/ HOSU-53 versus aza/HOSU-53 versus the triple aza/ven/HOSU-53 regimen.

Another data set has as its system MOLM-13. The data set is described as follows: MTS proliferation assay, MOLM-13. The conditions noted are these: Homo sapiens; MOLM-13, 96-hour treatment; read-out: IC50 (MTS proliferation). It is filed as cell-based. On the procedure: A total of 10,000–20,000 cells from different AML lines or 50,000–75,000 cells of primary AML blasts were treated in a 96-well plate for 72 hours or 96 hours at 37°C, 5% CO2. CellTiter 96 Aqueous MTS reagent (Promega) was added to cells followed by a 3-hour incubation at 37°C, 5% CO2. The absorbance was measured at 490 nm using DTX 880 plate reader, and the IC50 was calculated using GraphPad Prism.

The next data set has as its target CYP 1A2 (Homo sapiens, UniProt P05177). Description: CYP inhibition 1A2. It counts as in vitro ADME. The source says:
(§1) Supplement jciinsight-9-173646-s083.xlsx, sheet "Supplemental Table S.2." | column: HOSU-53

A further data set has as its target Rat DHODH (Rattus norvegicus, UniProt Q63707). The data set is described as follows: Cell-free multi-species DHODH enzyme inhibition assay, rat. The settings on record: n=1. It is filed as biochemical.
The nature of a further data set: Protein binding, AAG. It counts as in vitro ADME. The settings on record: 0.07% AAG.
Description: as §1

The test system of another data set is plasma DHO. The data set is described as follows: DHO plasma accumulation in MOLM-13 tumor-bearing mice. It is filed as in vivo, NCG mice. The conditions noted are these: 10 mpk PO, female mice, per mouse, 10 mg/kg. Set-up: unit not given here.
For data set [2], the system named is panel of approximately 450 human kinases. The data set is described as follows: KINOMEscan profiling. It is filed as binding. The conditions noted are these: 10 μM. As to the method: Supplemental Figure S.1. HOSU-53 KINOMEscan™ Profiling. Eurofins DiscoverX KINOMEscan®
Profiling was conducted using 10 μM HOSU-53 to investigate the presence of any off-target kinase
(§2) (1 picture or pasted object on this page, not shown here)

For data set [3], the system named is plasma dihydroorotate (DHO). Description: Single-dose PD: plasma DHO accumulation in mice. It counts as in vivo, male C57BL/6 mice. The settings on record: HOSU-53 10 mpk PO, per mouse. On the procedure:
In the i.v. cohort, serial blood samples were collected in tubes containing K2EDTA at 0.083, 0.25, 0.5, 1, 2, 6, 24, 48, and 72 hours postdose while in the oral gavage cohort, serial blood samples were collected at 0.25, 0.5, 1, 2, 4, 8, 24, 48, and 72 hours postdose. Blood samples were processed to plasma to analyze for HOSU-53 and L-dihydroorotic acid (DHO) concentrations using liquid chromatography-tandem mass spectrometry. page 6: Plasma samples were obtained following appropriate dosing administration and saved in the -80°C freezer till the time of analysis. Analyses by LC-MS/MS followed sample extraction by protein precipitation and separation by Ultra Performance Liquid Chromatography (UPLC, Waters Corporation, MA, USA) using a C18 column, 1.7um, 2.1x50mm, Mobile Phase A: 5:95:0.1 (v:v:v) Acetonitrile:Water:Formic Acid, Mobile Phase B: 50:50:0.1 (v:v:v) Methanol:Acetonitrile:Formic Acid. MS/MS analyses were performed on an API-6500 (Absciex MA, USA) in positive mode using an electrospray source at 550°C. The internal standard was d4-AEA monitored at 352.2 and 66.0 m/z transitions and the target analyte, HOSU-53, was monitored at 416.5 and 331.1 m/z transitions. The assay was qualified between 10-5,000 ng/ml HOSU53 to be within ±20% for QCs above the LLOQ in this range and ±25% at the LLOQ. DHO concentration quantification in mouse plasma samples. Plasma samples were obtained following appropriate dosing administration and saved in the -80°C freezer till the time of analysis. Analyses by LC-MS/MS followed sample extraction by protein precipitation and separation by Ultra Performance Liquid Chromatography (UPLC, Waters Corporation, MA, USA) using a Phenomenex Aqua C18 100x4.6mm, 3uM, […], Mobile Phase A: 100:0.1 (v:v) Water:Formic Acid, Mobile Phase B: 100:0.1 (v:v) Methanol:Formic Acid. MS/MS analyses were performed on an API-4000 (Absciex MA, USA) in negative mode using an electrospray source at 550°C. The internal standard was labeled 13C14_L-Dihydroorotic Acid monitored at 161.3 and 117.1 m/z transitions and the target analyte, L-Dihydroorotic Acid (DHO), was monitored at 157.0 and 70.0 m/z transitions. The assay was qualified between 10.0-30,000 ng/ml DHO to be within ±20% for QCs above the LLOQ in this range and ±25% at the LLOQ.

Data set [4] relates to MOLM-13 disseminated CDX AML model. The data set is described as follows: MOLM-13 CDX synergy with anti-CD38 immunotherapy. It counts as in vivo, NCG mice. The conditions noted are these: HOSU53 10 mpk qd; event 1 = death; 10 mg/kg. As to the method: Male 8- to 12-week-old male NCG mice were engrafted with 1 × 10^5 cells via tail vein i.v. injection. […] Figure 7, B and C, and Supplemental Figure 7, A and B, share 2 combined vehicle groups (n = 16 total).
Supplemental Figure S.7. […] Using the
daratumumab (Dara) (A) or biwk 2.5 mg/kg i.p isatuximab, Isa (B) anti-CD38 antibodies or a
Treatment was stopped at day
80. Adjusted FDR p-value *<0.05, nonsignificant (ns) ≥0.05.
Both Supplementary Figure S.7, A and B share the same vehicle and 4 mg/kg
as §2

Values joined by “and” are separate entries in the source; they are usually repeats but may differ in a detail not shown here. Identical values can stand only once.

Rat DHODH, sequence (Q63707 whole entry): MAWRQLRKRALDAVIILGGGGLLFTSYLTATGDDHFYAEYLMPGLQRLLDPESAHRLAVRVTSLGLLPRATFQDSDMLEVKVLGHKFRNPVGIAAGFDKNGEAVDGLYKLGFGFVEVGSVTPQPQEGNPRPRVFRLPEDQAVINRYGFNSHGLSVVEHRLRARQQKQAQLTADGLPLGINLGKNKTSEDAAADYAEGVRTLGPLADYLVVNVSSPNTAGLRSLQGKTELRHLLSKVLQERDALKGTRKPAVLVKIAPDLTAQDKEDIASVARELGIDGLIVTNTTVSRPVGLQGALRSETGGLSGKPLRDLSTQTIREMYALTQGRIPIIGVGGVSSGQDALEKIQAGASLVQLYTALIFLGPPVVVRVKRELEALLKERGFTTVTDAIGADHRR
CYP 1A2, sequence (P05177 whole entry): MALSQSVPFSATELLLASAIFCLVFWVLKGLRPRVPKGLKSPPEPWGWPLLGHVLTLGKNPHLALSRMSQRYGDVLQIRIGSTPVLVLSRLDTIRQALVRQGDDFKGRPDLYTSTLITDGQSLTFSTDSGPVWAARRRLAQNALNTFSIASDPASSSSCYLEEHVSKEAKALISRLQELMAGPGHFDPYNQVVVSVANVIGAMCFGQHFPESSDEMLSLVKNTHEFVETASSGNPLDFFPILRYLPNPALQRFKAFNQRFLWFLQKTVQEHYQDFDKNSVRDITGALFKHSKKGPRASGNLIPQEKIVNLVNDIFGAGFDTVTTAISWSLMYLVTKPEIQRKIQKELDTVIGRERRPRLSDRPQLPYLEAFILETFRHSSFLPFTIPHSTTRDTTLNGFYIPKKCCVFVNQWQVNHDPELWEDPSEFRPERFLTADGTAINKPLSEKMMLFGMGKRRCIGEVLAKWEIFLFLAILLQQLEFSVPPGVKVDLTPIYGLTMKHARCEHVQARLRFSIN

On to `CCCCOc1cccc(-c2ccc(-c3cc(C(=O)O)c4cc(F)ccc4n3)cc2)c1` [HOSU-53], for which the “Days of treatment (survival, per animal)” value in [1] was 42 days and 40 days and 37 days and 41 days. Besides, the IC50 was 13 nM in the data set with MOLM-13, 19600 nM on CYP 1A2 and 7.65 nM against Rat DHODH. The fraction unbound (commonly free concentration divided by total concentration) in “Protein binding, AAG” came to 0.015. Further, the “DHO AUC (Figure 3C y value)” value was 242.955 and 321.59 and 315.332 in the data set with plasma DHO (Day 1); 411.662 and 445.373 and 347.096 with plasma DHO (Day 14). In data set [2], the “alternative-target activity against kinase panel” value was “lack of alternative-target activity”. For the same compound, the DHO plasma concentration in data set [3] (0.5 h postdose) is 0.2422 µM; in data set [3] (1 h postdose, 10 mg/kg) it was 0.6072 µM and 0.4288 µM and 0.8412 µM; in [3] (2 h postdose, 10 mg/kg) it was 2.068 µM and 1.512 µM and 1.613 µM; in [3] (4 h postdose, 10 mg/kg) it was 2.783 µM and 2.701 µM and 3.7758 µM; in data set [3] (8 h postdose, 10 mg/kg), 6.325 µM and 4.807 µM and 6.894 µM; in data set [3] (24 h postdose, 10 mg/kg) it was 9.613 µM and 11.9535 µM and 9.74 µM. The DHO plasma concentration was 4.364 µM and 4.453 µM and 2.467 µM in data set [3] (48 h postdose, 10 mg/kg); 1.189 µM and 0.9613 µM and 1.132 µM in data set [3] (72 h postdose, 10 mg/kg). Moreover, the “Day of Study (survival, per animal)” value in [4] is 57 days and 64 days and 43 days and 63 days and 58 days and 62 days and 65 days.
